Laboratory results published in US8008329B2 (Dong Wha Pharmaceutical Co., Ltd., priority 2008, dated 2011).
Where “and” joins values, the source holds several entries; their conditions need not be identical. Equal entries are not always repeated. Marks after values point to notes of the source that are not given here.

Tests used:
[1] = test system: osteoclast differentiation; assay: Osteoclast differentiation in co-culture of mouse bone marrow cells and calvarial osteoblasts, TRAP staining (Examples 1-7); type: cell-based; settings: day 7
[2] = test system: osteoclast differentiation; assay: Osteoclast differentiation in co-culture of mouse bone marrow cells and ST2 cells, TRAP staining (Examples 8-9); type: cell-based; settings: for % number of osteoclast (vs. solvent control group): 0.1 μM each, day 7; for activity at 0.1 µM: Mus musculus, Osteoclast, 168 h, Individual treatment (compounds), day 7, read-out: % number of osteoclast (vs. solvent control group)
In short: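 Bone marrow cells from 6-8-week male ddY mice were co-cultured with ST2 stromal cells under 10^−8 M vitamin D3 and 10^−8 M dexamethasone, with compounds at 0.1 μM final (0.1% DMSO control), refreshed on days 3 and 5. On day 7, TRAP-positive osteoclasts with ≥6 nuclei were counted and expressed as % of solvent control (n=4).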

[3] = Mus musculus, Osteoclast, 168 h, individual treatment of Compound (0.1 μM), read-out: % number of osteoclast (vs. solvent control group)
[4] = combination treatment of alendronic acid (0.2 μM) with compound (0.1 μM)
[5] = combination treatment of clodronic acid (1 μM) with compound (0.1 μM)
[6] = combination treatment of etidronic acid (2 μM) with compound (0.1 μM)
[7] = combination treatment of ibandronic acid (0.1 μM) with compound (0.1 μM)
[8] = combination treatment of pamidronic acid (0.1 μM) with compound (0.1 μM)
[9] = combination treatment of risedronic acid (0.1 μM) with compound (0.1 μM)
[10] = combination treatment of zoledronic acid (0.01 μM) with compound (0.1 μM)
[11] = individual treatment of Compound (0.1 μM)
[12] = Combination treatment (alendronic acid + compounds)
[13] = Combination treatment (risedronic acid + compounds)

SMILES | % number of osteoclast (vs. solvent control group) [2, 12] | % number of osteoclast (vs. solvent control group) [2, 13] | activity at 0.1 µM [2] [%] | also measured
CCCCCN(C)CCC(O)(P(=O)(O)O)P(=O)(O)O [ibandronic acid, reference compound] | – | – | – | activity at 0.1 µM ([1]; Mus musculus, Osteoclast, 168 h, individual treatment of ibandronic acid (0.1 μM), read-out: % number of osteoclast (vs. solvent control group)): 77%; % number of osteoclast (vs. solvent control group) ([1]; individual treatment of ibandronic acid (0.1 μM)): 77 ± 8.2 %
NCCC(O)(P(=O)(O)O)P(=O)(O)O [pamidronic acid, reference compound] | – | – | – | activity at 0.1 µM ([1]; Mus musculus, Osteoclast, 168 h, individual treatment of pamidronic acid (0.1 μM), read-out: % number of osteoclast (vs. solvent control group)): 82%; % number of osteoclast (vs. solvent control group) ([1]; individual treatment of pamidronic acid (0.1 μM)): 82 ± 6.7 %
CC(C)c1sc(N2CCOCC2)nc1-c1ccc(OCCCCCOc2ccc(C(=N)NO)cc2)cc1 [Compound 169, N-hydroxy-4-{5-[4-(5-isopropyl-2-morpholino-1,3-thiazol-4-yl)phenoxy]pentyloxy}-benzamidine] | – | – | – | activity at 0.1 µM [1, 3]: 78%; % number of osteoclast (vs. solvent control group) [1, 4]: 44% and 44 ± 7.4*^#@ %; % number of osteoclast (vs. solvent control group) [1, 5]: 59% and 59 ± 14.0*^#@ %; % number of osteoclast (vs. solvent control group) [1, 6]: 49% and 49 ± 9.7*^#@ %; % number of osteoclast (vs. solvent control group) [1, 7]: 54 ± 8.7*^#@ %; % number of osteoclast (vs. solvent control group) [1, 8]: 50% and 50 ± 8.7*^#@ %; % number of osteoclast (vs. solvent control group) [1, 9]: 42% and 42 ± 7.6*^#@ %; % number of osteoclast (vs. solvent control group) [1, 10]: 59 ± 8.2*^#@ %; % number of osteoclast (vs. solvent control group) [1, 11]: 78 ± 8.6 %
O=P(O)(O)C(Cl)(Cl)P(=O)(O)O [clodronic acid, reference compound] | – | – | – | activity at 1 µM ([1]; Mus musculus, Osteoclast, 168 h, individual treatment of clodronic acid (1 μM), read-out: % number of osteoclast (vs. solvent control group)): 88%; % number of osteoclast (vs. solvent control group) ([1]; individual treatment of clodronic acid (1 μM)): 88 ± 9.7 %
CC(O)(P(=O)(O)O)P(=O)(O)O [etidronic acid, reference compound] | – | – | – | activity at 2 µM ([1]; Mus musculus, Osteoclast, 168 h, individual treatment of etidronic acid (2 μM), read-out: % number of osteoclast (vs. solvent control group)): 86%; % number of osteoclast (vs. solvent control group) ([1]; individual treatment of etidronic acid (2 μM)): 86 ± 6.9 %
O=P(O)(O)C(O)(Cn1ccnc1)P(=O)(O)O [zoledronic acid, reference compound] | – | – | – | activity at 0.01 µM ([1]; Mus musculus, Osteoclast, 168 h, individual treatment of zoledronic acid (0.01 μM), read-out: % number of osteoclast (vs. solvent control group)): 84%; % number of osteoclast (vs. solvent control group) ([1]; individual treatment of zoledronic acid (0.01 μM)): 84 ± 4.1 %
Cc1nc(-c2ccc(OCCCCCOc3ccc(C(=N)NO)c(F)c3)cc2)c(C(C)C)s1 [Compound 187, N-hydroxy-2-fluoro-4-{5-[4-(5-isopropyl-2-methyl-1,3-thiazol-4-yl)-phenoxy]-pentyloxy}-benzamidine] | – | – | – | activity at 0.1 µM [1, 3]: 67%; % number of osteoclast (vs. solvent control group) [1, 4]: 32% and 32 ± 8.1*^#@ %; % number of osteoclast (vs. solvent control group) [1, 5]: 60 ± 15.2*^#@ %; % number of osteoclast (vs. solvent control group) [1, 6]: 41% and 41 ± 7.5*^#@ %; % number of osteoclast (vs. solvent control group) [1, 7]: 42% and 42 ± 8.1*^#@ %; % number of osteoclast (vs. solvent control group) [1, 8]: 47% and 47 ± 10.5*^#@ %; % number of osteoclast (vs. solvent control group) [1, 9]: 40% and 40 ± 6.6*^#@ %; % number of osteoclast (vs. solvent control group) [1, 10]: 43% and 43 ± 4.5*^#@ %; % number of osteoclast (vs. solvent control group) [1, 11]: 67% and 67 ± 7.4 %
Cc1nc(-c2ccc(OCCCCCNc3ccc(C(=N)NO)cc3)cc2)c(C(C)C)s1 [Compound 177, N-hydroxy-4-{5-[4-(5-isopropyl-2-methyl-1,3-thiazol-4-yl)-phenoxy]-pentylamino}-benzamidine] | 34 ± 10.2^ab % | 34 ± 5.7^ac % | 74 ± 10.1 | –
Cc1nc(-c2ccc(OCCCCCOc3ccc(C(=N)NO)cc3)cc2)c(CNC(C)(C)C)s1 [Compound 300, N-hydroxy-4-(5-{4-[5-(tert-butylamino-methyl)-2-methyl-thiazol-4-yl]-phenoxy}-pentyloxy)-benzamidine] | 12 ± 1.7^ab % | 8 ± 5.2^ac % | 48 ± 3 | –
CN(CCN1CCOCC1)c1nc(-c2ccc(OCCCCCOc3ccc(C(=N)NO)cc3)cc2)c(CN2CCOCC2)s1 [Compound 313, N-hydroxy-4-[5-(4-{2-[methyl-(2-morpholin-4-yl-ethyl)-amino]-5-morpholin-4-ylmethyl-thiazol-4-yl}-phenoxy)-pentyloxy]-benzamidine] | 23 ± 5.9^ab % | 13 ± 3.3^ac % | 53 ± 6 | –
Cc1nc(-c2ccc(OCCCCCOc3ccc(C(=N)NO)cc3)cc2)c(C(=O)NCCCn2ccnc2)s1 [Compound 284, N-hydroxy-4-{5-[4-(5-{3-imidazol-1-yl-propylcarbamoyl}-2-methyl-thiazol-4-yl)-phenoxy]-pentyloxy}-benzamidine] | 36 ± 5.0^ab % | 19 ± 5.8^ac % | 73 ± 7.7 | –
Cc1nc(-c2ccc(OCCCCCOc3ccc(C(=N)NO)cc3)cc2)c(CCn2ccnc2)s1 [Compound 222, N-hydroxy-4-(5-{4-[5-(2-imidazol-1-yl-ethyl)-2-methyl-thiazol-4-yl]-phenoxy}-pentyloxy)-benzamidine] | 49 ± 6.8^ab % | 36 ± 6.6^ac % | 74 ± 7.1 | –
CC(C)c1nc(-c2ccc(OCCCCCOc3ccc(C(=N)NO)cc3)cc2)c(CCN(C(=O)c2ccncc2)C2CC2)s1 [Compound 280, N-hydroxy-4-{5-[4-(5-{2-[cyclopropyl-(pyridin-4-carbonyl)-amino]-ethyl}-2-isopropyl-thiazol-4-yl)-phenoxy]-pentyloxy}-benzamidine] | 25 ± 6.4^b % | 8 ± 1.4^ac % | 40 ± 5 | –
Cc1nc(-c2ccc(OCCCOc3ccc(C(=N)NO)cc3)cc2)c(C(C)C)s1 [Compound 193, N-hydroxy-4-{3-[4-(5-isopropyl-2-methyl-1,3-thiazol-4-yl)phenoxy]propoxy}-benzamidine] | 34 ± 5.0^ab % | 27 ± 4.8^ac % | 48 ± 4.4 | –
CN(CCN1CCOCC1)c1nc(-c2ccc(OCCCCCOc3ccc(C(=N)NO)cc3)cc2)c(CN2CCSCC2)s1 [Compound 314, N-hydroxy-4-[5-(4-{2-[methyl-(2-morpholin-4-yl-ethyl)-amino]-5-thiomorpholin-4-ylmethyl-thiazol-4-yl}-phenoxy)-pentyloxy]-benzamidine] | 15 ± 1.7^ab % | 9 ± 3.2^ac % | 43 ± 7 | –
CC(C)c1nc(-c2ccc(OCCCCCOc3ccc(C(=N)NO)cc3)cc2)c(CCN2CCN(C)CC2)s1 [Compound 241, N-hydroxy-4-[5-(4-{2-isopropyl-5-[2-(4-methyl-piperazin-1-yl)-ethyl]-thiazol-4-yl}-phenoxy)-pentyloxy]-benzamidine] | 24 ± 4.6^ab % | 12 ± 1.4^ac % | 61 ± 6.8 | –
N=C(NO)c1ccc(OCCCCCOc2ccc(-c3nc(N4CCOCC4)sc3N3CCOCC3)cc2)cc1 [Compound 290, N-hydroxy-4-{5-[4-(2,5-di-morpholin-4-yl-thiazol-4-yl)-phenoxy]-pentyloxy}-benzamidine] | 23 ± 4.7^ab % | 12 ± 2.0^ac % | 52 ± 6.2 | –
CN(C)c1nc(-c2ccc(OCCCCCOc3ccc(C(=N)NO)cc3)cc2)c(CCN2CCSCC2)s1 [Compound 267, N-hydroxy-4-(5-{4-[2-dimethylamino-5-(2-thiomorpholin-4-yl-ethyl)-thiazol-4-yl]-phenoxy}-pentyloxy)-benzamidine] | 33 ± 5.3^ab % | 13 ± 2.4^ac % | 68 ± 8.6 | –
CCCCc1sc(NC)nc1-c1ccc(OCCCCCOc2ccc(C(=N)NO)cc2)cc1 [Compound 105, N-hydroxy-4-{5-[4-(5-butyl-2-methylamino-1,3-thiazol-4-yl)phenoxy]pentyloxy}-benzamidine] | 42 ± 3.0^b % | 41 ± 8.8^ac % | 87 ± 11 | –
CN1CCN(CCc2sc(C3CCCCC3)nc2-c2ccc(OCCCCCOc3ccc(C(=N)NO)cc3)cc2)CC1 [Compound 247, N-hydroxy-4-[5-(4-{2-cyclohexyl-5-[2-(4-methyl-piperazin-1-yl)-ethyl]-thiazol-4-yl}-phenoxy)-pentyloxy]-benzamidine] | 39 ± 3.7^ab % | 17 ± 4.5^ac % | 63 ± 4.2 | –
